In US11753397B2, “Cereblon binders for the degradation of ikaros” (C4 Therapeutics, Inc., priority 2018, dated 2023) one finds GI50 data, which are given here for 25 compounds.

For the assay, the system named is NCIH929.1 cells. Briefly: Cell viability assay (CellTiter-Glo 2.0, ATP quantification). It is filed as cell-based. Conditions: NCIH929.1 cell viability, CellTiter-Glo 2.0, 96 hr incubation, top concentration 1 μM. As to the method: Example 59. Cell Viability Assay
RPMI 1640 medium, fetal bovine serum (FBS) and 2-mercaptoethanol were purchased from Gibco (Grand Island, N.Y., USA). CellTiter-Glo® 2.0 Assay was purchased from Promega (Madison, Wis., USA). NCIH929.1 cell line was purchased from ATCC (Manassas, Va., USA). Cell culture flasks and 384-well microplates were acquired from VWR (Radnor, Pa., USA).
NCIH929.1 cell viability was determined based on quantification of ATP using CellTiter-Glo® 2.0 luminescent Assay kit, which signals the presence of metabolically-active cells. Briefly, the test compound was added to 384-well plates at a top concentration of 1 μM with 10 points, half log titration in duplicates. NCIH929.1 cells were seeded into the 384-well plates in RPMI medium containing 10% FBS and 0.05 mM 2-mercaptoethanol at a cell density of 750 cells per well. Cells treated in the absence of the test compound were the negative control and cells treated in the absence of CellTiter-Glo® 2.0 were the positive control. At the same day of compound treatment, CellTiter-Glo® 2.0 was added to a plate with cells treated in the absence of the test compound to establish Cytostatic control value (CT0). Cells treated with the test compound were incubated at 37° C. with 5% CO2 for 96 hr. CellTiter-Glo reagent was then added to the cells and luminescence was acquired on EnVision™ Multilabel Reader (PerkinElmer, Santa Clara, Calif., USA).

Take `COCC(=O)N1CCC(C(=O)N2CCC(n3cc(CNc4cccc5c4C(=O)N(C4CCC(=O)NC4=O)C5=O)cn3)CC2)CC1` (stereo not shown) [Compound 111, 2-(2,6-dioxopiperidin-3-yl)-4-(((1-(1-(1-(2-methoxyacetyl)piperidine-4-carbonyl)piperidin-4-yl)-1H-pyrazol-4-yl)methyl)amino)isoindoline-1,3-dione]: the GI50 is < 100 nM. As to `O=C1CCC(N2C(=O)c3cccc(NCc4cnn(C5CCCCC5)c4)c3C2=O)C(=O)N1` (stereo not shown) [Compound 158, 4-[(1-cyclohexylpyrazol-4-yl)methylamino]-2-(2,6-dioxo-3-piperidyl)isoindoline-1,3-dione], the GI50 is < 100 nM. Take `O=C1CCC(N2C(=O)c3cccc(NCc4cnn(C5CCN(C6CCCCC6)CC5)c4)c3C2=O)C(=O)N1` (stereo not shown) [Compound 133, 4-(((1-(1-cyclohexylpiperidin-4-yl)-1H-pyrazol-4-yl)methyl)amino)-2-(2,6-dioxopiperidin-3-yl)isoindoline-1,3-dione]: the GI50 was < 100 nM. On to `CC1(C(=O)N2CCC(n3cc(CNc4cccc5c4C(=O)N(C4CCC(=O)NC4=O)C5=O)c(Cl)n3)CC2)CCC1` (stereo not shown) [Compound 191, 4-[[3-chloro-1-[1-(1-methylcyclobutanecarbonyl)-4-piperidyl]pyrazol-4-yl]methylamino]-2-(2,6-dioxo-3-piperidyl)isoindoline-1,3-dione], for which the concentration for 50% growth inhibition (GI50) was < 1 nM. In the case of `CC1CC1C(=O)N1CCC(n2cc(CNc3cccc4c3C(=O)N(C3CCC(=O)NC3=O)C4=O)cn2)CC1` (stereo not shown) [Compound 45, 2-(2,6-dioxopiperidin-3-yl)-4-(((1-(1-(2-methylcyclopropane-1-carbonyl)piperidin-4-yl)-1H-pyrazol-4-yl)methyl)amino)isondoline-1,3-dione] it was < 100 nM; in that of `O=C1CCC(N2C(=O)c3cccc(NCc4cnn([C@H]5CC[C@H](C(=O)N6CCCCC6)CC5)c4)c3C2=O)C(=O)N1` (stereo partly shown) [Compound 170, 2-(2,6-Dioxopiperidin-3-yl)-4-(((1-((1r,4r)-4-(piperidine-1-carbonyl)cyclohexyl)-1H-pyrazol-4-yl)methyl)amino)isoindoline-1,3-dione], < 100 nM; in that of `CC(C)(C)OC(=O)N1C2CCC1CC(n1cc(CNc3cccc4c3C(=O)N(C3CCC(=O)NC3=O)C4=O)cn1)C2` (stereo not shown) [Compound 166, tert-Butyl 3-(4-(((2-(2,6-dioxopiperidin-3-yl)-1,3-dioxoisoindolin-4-yl)amino)methyl)-1H-pyrazol-1-yl)-8-azabicyclo[3.2.1]octane-8-carboxylate], < 100 nM.

For `O=C1CCC(N2C(=O)c3cccc(NCc4cnn(C5CCN(C6CCCC6)CC5)c4)c3C2=O)C(=O)N1` (stereo not shown) [Compound 130, 4-(((1-(1-cyclopentylpiperidin-4-yl)-1H-pyrazol-4-yl)methyl)amino)-2-(2,6-dioxopiperidin-3-yl)isoindoline-1,3-dione], the GI50 was < 100 nM. With `O=C1CCC(N2C(=O)c3cccc(NCc4cnn(C5CCN(C(=O)C6(c7ccccc7)CC6)CC5)c4)c3C2=O)C(=O)N1` (stereo not shown) [Compound 72, 2-(2,6-dioxopiperidin-3-yl)-4-(((1-(1-(1-phenylcyclopropane-1-carbonyl)piperidin-4-yl)-1H-pyrazol-4-yl)methyl)amino)isoindoline-1,3-dione], the GI50 is < 100 nM. In the case of `CC1(CN2CCC(n3cc(CNc4cccc5c4C(=O)N(C4CCC(=O)NC4=O)C5=O)cn3)CC2)CCCC1` (stereo not shown) [Compound 138, 2-(2,6-dioxopiperidin-3-yl)-4-(((1-(1-((1-methylcyclopentyl)methyl)piperidin-4-yl)-1H-pyrazol-4-yl)methyl)amino)isoindoline-1,3-dione] it was < 1 nM; in that of `O=C1CCC(N2C(=O)c3cccc(NCc4cnn(C5CCN(C(=O)C6CCOCC6)CC5)c4)c3C2=O)C(=O)N1` (stereo not shown) [Compound 11, 2-(2,6-dioxopiperidin-3-yl)-4-(((1-(1-(tetrahydro-2H-pyran-4-carbonyl)piperidin-4-yl)-1H-pyrazol-4-yl)methyl)amino)isoindoline-1,3-dione], < 100 nM; in that of `O=C1CCC(N2C(=O)c3cccc(NCc4cnn(C5CCN(CC6CCCCC6)CC5)c4)c3C2=O)C(=O)N1` (stereo not shown) [Compound 127, 4-(((1-(1-(cyclohexylmethyl)piperidin-4-yl)-1H-pyrazol-4-yl)methyl)amino)-2-(2,6-dioxopiperidin-3-yl)isoindoline-1,3-dione], < 100 nM. Regarding `C[C@H](O)C(=O)N1CCC(n2cc(CNc3cccc4c3C(=O)N(C3CCC(=O)NC3=O)C4=O)cn2)CC1` (stereo partly drawn) [Compound 53, 2-(2,6-dioxopiperidin-3-yl)-4-(((1-(1-((S)-2-hydroxypropanoyl)piperidin-4-yl)-1H-pyrazol-4-yl)methyl)amino)isoindoline-1,3-dione], the GI50 was < 100 nM. In the case of `O=C1CCC(N2C(=O)c3cccc(NCc4cnn(C5CCN(C(=O)C67CC(F)(C6)C7)CC5)c4)c3C2=O)C(=O)N1` (stereo not shown) [Compound 78, 2-(2,6-dioxopiperidin-3-yl)-4-(((1-(1-(3-fluorobicyclo[1.1.1]pentane-1-carbonyl)piperidin-4-yl)-1H-pyrazol-4-yl)methyl)amino)isoindoline-1,3-dione] it was < 100 nM; in that of `O=C1CCC(N2C(=O)c3cccc(NCc4cnn(C5CCN(C6CCC6)CC5)c4)c3C2=O)C(=O)N1` (stereo not shown) [Compound 129, 4-(((1-(1-cyclobutylpiperidin-4-yl)-1H-pyrazol-4-yl)methyl)amino)-2-(2,6-dioxopiperidine-3-yl)isoindoline-1,3-dione], < 100 nM; in that of `CC(C)(C)CCC(=O)N1CCC(n2cc(CNc3cccc4c3C(=O)N(C3CCC(=O)NC3=O)C4=O)cn2)CC1` (stereo not shown) [Compound 8, 4-(((1-(1-(4,4-dimethylpentanoyl)piperidin-4-yl)-1H-pyrazol-4-yl)methyl)amino)-2-(2,6-dioxopiperidin-3-yl)isoindoline-1,3-dione], < 1 nM. In the case of `O=C1CCC(N2C(=O)c3cccc(NCc4cnn(C5CCN(C(=O)C6(C#CC7CC7)CCC6)CC5)c4)c3C2=O)C(=O)N1` (stereo not shown) [Compound 205, 4-({1-[1-(1-Cyclopropylethynyl-cyclobutanecarbonyl)-piperidin-4-yl]-1H-pyrazol-4-yl-methyl}-amino)-2-(2,6-dioxo-piperidin-3-yl)-isoindole-1,3-dione] it was < 100 nM; in that of `O=C1CCC(N2C(=O)c3cccc(NCc4cnn(C5CCN(C(=O)[C@@H]6CCCO6)CC5)c4)c3C2=O)C(=O)N1` (stereo partly drawn) [Compound 59, 2-(2,6-dioxopiperidin-3-yl)-4-(((1-(1-((S)-tetrahydrofuran-2-carbonyl)piperidin-4-yl)-1H-pyrazol-4-yl)methyl)amino)isoindoline-1,3-dione], < 100 nM. Take `CC12CC(C(=O)N3CCC(n4cc(CNc5cccc6c5C(=O)N(C5CCC(=O)NC5=O)C6=O)cn4)CC3)(C1)C2` (stereo not shown) [Compound 85, 2-(2,6-dioxopiperidin-3-yl)-4-(((1-(1-(3-methylbicyclo[1.1.1]pentane-1-carbonyl)piperidin-4-yl)-1H-pyrazol-4-yl)methyl)amino)isoindoline-1,3-dione]: the GI50 was < 100 nM. Under `CN1CCC(n2cc(CNc3cccc4c3C(=O)N(C3CCC(=O)NC3=O)C4=O)cn2)CC1` (stereo not shown) [Compound 157, 2-(2,6-dioxo-3-piperidyl)-4-[[1-(1-methyl-4-piperidyl)pyrazol-4-yl]methylamino]isoindoline-1,3-dione] stands < 100 nM; under `O=C1CCC(N2C(=O)c3cccc(NCc4cnn(C5CCN(C(=O)Cc6cnn(-c7ccccc7)c6)CC5)c4)c3C2=O)C(=O)N1` (stereo not shown) [Compound 120, 2-(2,6-dioxopiperidin-3-yl)-4-(((1-(1-(2-(1-phenyl-1H-pyrazol-4-yl)acetyl)piperidin-4-yl)-1H-pyrazol-4-yl)methyl)amino)isoindoline-1,3-dione], < 100 nM; under `CC1(C(=O)N2CCC(n3cc(CNc4cccc5c4C(=O)N(C4CCC(=O)NC4=O)C5=O)cn3)CC2)CC1` (stereo not shown) [Compound 36, 2-(2,6-dioxopiperidin-3-yl)-4-(((1-(1-(1-methylcyclopropane-1-carbonyl)piperidin-4-yl)-1H-pyrazol-4-yl)methyl)amino)isoindoline-1,3-dione], < 100 nM. Under `O=C1CCC(N2C(=O)c3cccc(NCc4cnn(C5CCN(C(=O)C67C8C9C%10C8C6C%10C97)CC5)c4)c3C2=O)C(=O)N1` [Compound 95, 4-(((1-(1-((1s,4R,3R,4r,5r,6S,7S,8s)-cubane-1-carbonyl)piperidin-4-yl)-1H-pyrazol-4-yl)methyl)amino)-2-(2,6-dioxopiperidin-3-yl)isoindoline-1,3-dione] stands < 1 nM; under `O=C1CCC(N2C(=O)c3cccc(NCc4cnn(C5CCN(C(=O)CN6CCOCC6)CC5)c4)c3C2=O)C(=O)N1` (stereo not shown) [Compound 43, 2-(2,6-dioxopiperidin-3-yl)-4-(((1-(1-(2-morpholinoacetyl)piperidin-4-yl)-1H-pyrazol-4-yl)methyl)amino)isoindoline-1,3-dione], < 100 nM. Under `O=C1CCC(N2C(=O)c3cccc(NCc4cnn(C5CCN(C(=O)c6cc(C7CC7)on6)CC5)c4)c3C2=O)C(=O)N1` (stereo not shown) [Compound 39, 4-(((1-(1-(5-cyclopropylisoxazole-3-carbonyl)piperidin-4-yl)-1H-pyrazol-4-yl)methyl)amino)-2-(2,6-dioxopiperidin-3-yl)isoindoline-1,3-dione] stands < 100 nM.
